From patent US20110105436A1, “HETEROARYL COMPOUNDS, COMPOSITIONS, AND METHODS OF USE IN CANCER TREATMENT” (AUCKLAND UNISERVICES LIMITED, priority 2008, published 2011)

Legend:
RCC4/VHL cells = assay: XTT assay, RCC4/VHL versus RCC4 cells (selectivity ratio); assay type: cell-based
Method in brief: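 RCC4 cells with or without VHL (5000/well) exposed to serially diluted compounds for four days. Viability read as XTT metabolism (0.3 mg/ml XTT plus PMS, 1-2 h, 37 °C) at 450 nm. Ratio is IC50 in RCC4/VHL over IC50 in RCC4.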

[1] = system: SN12C and SN12C+shVHL tumor samples; assay: Ki67 immunostaining of tumor samples; assay type: in vivo, mice; settings: RCC deficient in VHL or with wild-type VHL, FIG. 7H
Experimental: B. XTT assay in RCC4 and RCC4/VHL in presence of STF-62247 (0-40 μM). Each point of the cell survival is calculated by the average of three different experiments in duplicate as the percent of treated on untreated plate. The error bars are represented as the standard error of the mean (SEM) C. qRT-PCR for Glutl, VEGF, PDF and PGK in RCC4 cells with or without HIF-1a, HIF-2a shRNA and in RCC4/VHL. D. Hoescht staining in RCC4 and RCC4/VHL cells with 1.25 μM of STF-62247 for 2 days. Camptothecin was used as positive control E. FACS analysis for apoptosis after an annexin V-FITC staining in presence or absence of propidium iodine (PI) in cells after a treatment in same conditions than in C. F. Immunoblot for active caspase-3 in RCC4 and RCC4/VHL following treatment with 1.25 μM of STF-62247 for 24 hours. Staurosporine was used as positive control (0.2 μM for 24 hours). G,H. Immunostaining of caspase-3 and Ki67 respectively in SN12C and SN12C+shVHL tumor samples untreated or treated with 30 μM of STF-62247.1. Immunoblot for p53 and SerlS phospho-p53 in RCC4 and RCC4/VHL cells after a treatment with 1.25 μM of STF-62247 or doxorubicin for 24 hours.

yeast deletion strains = assay: Killing curves of yeast deletion strains; assay type: cell-based, S. cerevisiae
Source text: Screen in yeast and killing curves. Genotypes of the parental yeast strain BY4743, construction of the homozygous diploid deletion strains, and construction of the homozygous diploid deletion pool have been described previously (Thomas, G. V., et al., Nat. Med. 2006, 12, 122). A mutant pool of 4728 nonessential homozygous diploid deletion strains was used. The parental diploid strain BY4743 was used as control in survival and complementation assays. […]
A. Killing curves for 8 deletion yeast strains. Wild-type, ALG5, APS1, CLA4, DRS2, OSH3, VPS20, VPS25, YPT31 were incubated with STF-62247 (0-100 μM) for 1 hour and colony formation was evaluated after two days. Each point of the survival is calculated by the average of two different experiments in triplicate and as the percent of treated on untreated plate. B. Quantitative real time PCR for CHMP6, PAK2, RAB11a, OSBP3 and ALG5 in RCC4 and RCC4/VHL. Histogram is calculated by the average of three different experiments in triplicate as the percent of RCC4/VHL on RCC4 cells. […] Colony formation was evaluated as described before. *p<0.05 represents the difference between VHL cells and VHL with siRNA in presence of 5 μM of STF-62247.

## Cc1cccc(Nc2nc(-c3ccncc3)cs2)c1 [Compound 5, N-(3-Methylphenyl)-4-(4-pyridinyl)-1,3-thiazol-2-amine]
RCC4/VHL cells; Table 1, selectivity ratio, IC50 in RCC4/VHL cells/IC50 in RCC4 cells
  Ratio: 19
RCC4/VHL cells; structure-activity text on Tables 1 and 2
  IC50 ratio (wild-type VHL/VHL-deficient cells): high IC50 ratio
[1]
  proliferation by Ki67 staining: no difference in proliferation
Yeast deletion strains; ATG8 deletion strain, data not shown
  sensitivity of yeast deletion strain: did not exhibit sensitivity to STF-62247
Yeast deletion strains; CLA4, VPS20, ALG5, OSH3 and YPT31 deletion strains, 0-100 μM, 1 h
  toxicity in yeast deletion strains: significant toxicity in response to STF-62247
